Test results: ChEMBL document CHEMBL1201862, “PubChem BioAssay data set” (2004)
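Interpolation was linear, between the two tested concentrations surrounding the appropriate level; five concentrations were tested over 48 hours in 96-well plates. At the GI50, growth is halved.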 The source made the active and inactive calls. Rule as the data show it: active = GI50 up to about 1.1 µM and inactive = higher.

Columns and labels:
Test in all cases: DTP human tumour cell line panel, 48 h
[1] = tested on: NCI-H522
[2] = tested on: A498
[3] = tested on: UACC-62
[4] = tested on: HOP-62
[5] = tested on: NCI-H460
[6] = tested on: CAKI-1
[7] = tested on: DLD-1
[8] = tested on: IGROV-1
[9] = tested on: NCI-H23
[10] = tested on: K562
[11] = tested on: LOX IMVI
[12] = tested on: SF-295
[13] = tested on: SK-MEL-5
[14] = tested on: TK-10
[15] = tested on: U-251
[16] = tested on: MOLT-4
[17] = tested on: RPMI-8226
[18] = tested on: COLO 205
[19] = tested on: HOP-18
[20] = tested on: 786-0
[21] = tested on: SF-268
[22] = tested on: KM12
[23] = tested on: NCI-H226
[24] = tested on: UACC-257
[25] = tested on: ACHN
[26] = tested on: LXFL 529
[27] = tested on: DMS-273
[28] = tested on: SK-MEL-2
[29] = tested on: OVCAR-8
[30] = tested on: SK-MEL-28
[31] = tested on: A549
[32] = tested on: SR
[33] = tested on: KM-20L2
[34] = tested on: EKVX
[35] = tested on: RXF 393
[36] = tested on: HT-29
[37] = tested on: CCRF-CEM
[38] = tested on: HL-60
[39] = tested on: SF-539
[40] = tested on: SN12C
[41] = tested on: M14
[42] = tested on: OVCAR-5
[43] = tested on: UO-31
[44] = tested on: Malme-3M
[45] = tested on: SK-OV-3
[46] = tested on: OVCAR-4
[47] = tested on: OVCAR-3
[48] = tested on: HCC 2998
[49] = tested on: SNB-75
[50] = tested on: HCT-116
[51] = tested on: DMS-114
[52] = tested on: M19-MEL
[53] = tested on: SW-620
[54] = tested on: SNB-19
[55] = tested on: HCT-15
[56] = tested on: BT-549
[57] = tested on: MDA-N
[58] = tested on: DU-145
[59] = tested on: HOP-92
[60] = tested on: NCI/ADR-RES
[61] = tested on: MDA-MB-231
[62] = tested on: Hs-578T
[63] = tested on: PC-3
[64] = tested on: T47D
[65] = tested on: MCF7
[66] = tested on: MDA-MB-435

`CCOP(=O)(C/C(O)=C1\C(=O)C(CCCCNC(=O)OC(C)(C)C)N(Cc2ccccc2)C1=O)OCC` (configuration not stated) was tested, and the GI50 [1] was 1.12 µM (inactive), the GI50 [2] was > 100 µM (inactive) and the GI50 [3] was > 100 µM (inactive). For the same molecule, the GI50 [4] was > 100 µM (inactive), the GI50 [5] was > 100 µM (inactive) and the GI50 [6] was > 100 µM (inactive). The GI50 [7] was > 100 µM (inactive), the GI50 [8] was > 100 µM (inactive) and the GI50 [9] was > 100 µM (inactive). The GI50 [10] was > 100 µM (inactive), the GI50 [11] was > 100 µM (inactive) and the GI50 [12] was > 100 µM (inactive). For the same molecule, the GI50 [13] was > 100 µM (inactive), the GI50 [14] was > 100 µM (inactive) and the GI50 [15] was > 100 µM (inactive). For the same molecule, the GI50 [16] was 78.7 µM (inactive), the GI50 [17] was > 100 µM (inactive) and the GI50 [18] was > 100 µM (inactive). The GI50 [19] was 80.5 µM (inactive), the GI50 [20] was > 100 µM (inactive) and the GI50 [21] was > 100 µM (inactive). For the same molecule, the GI50 [22] was > 100 µM (inactive), the GI50 [23] was > 100 µM (inactive) and the GI50 [24] was > 100 µM (inactive). For the same molecule, the GI50 [25] was > 100 µM (inactive), the GI50 [26] was > 100 µM (inactive) and the GI50 [27] was > 100 µM (inactive). For the same molecule, the GI50 [28] was > 100 µM (inactive), the GI50 [29] was > 100 µM (inactive) and the GI50 [30] was > 100 µM (inactive). The GI50 [31] was > 100 µM (inactive), the GI50 [32] was 69.2 µM (inactive) and the GI50 [33] was > 100 µM (inactive). The GI50 [34] was > 100 µM (inactive), the GI50 [35] was > 100 µM (inactive) and the GI50 [36] was > 100 µM (inactive). The GI50 [37] was > 100 µM (inactive), the GI50 [38] was 63.7 µM (inactive) and the GI50 [39] was > 100 µM (inactive). For the same molecule, the GI50 [40] was > 100 µM (inactive), the GI50 [41] was > 100 µM (inactive) and the GI50 [42] was > 100 µM (inactive). The GI50 [43] was > 100 µM (inactive), the GI50 [44] was > 100 µM (inactive) and the GI50 [45] was > 100 µM (inactive). The GI50 [46] was 94.2 µM (inactive), the GI50 [47] was > 100 µM (inactive) and the GI50 [48] was > 100 µM (inactive). The GI50 [49] was > 100 µM (inactive), the GI50 [50] was > 100 µM (inactive) and the GI50 [51] was > 100 µM (inactive). The GI50 [52] was > 100 µM (inactive).

With `Cc1ccc(C(=O)N2CCCCC2)cc1/N=N/N(C)C` the GI50 [1] was > 100 µM (inactive), the GI50 [2] was > 100 µM (inactive) and the GI50 [3] was > 100 µM (inactive). The GI50 [4] was > 100 µM (inactive), the GI50 [5] was > 100 µM (inactive) and the GI50 [6] was > 100 µM (inactive). The GI50 [7] was > 100 µM (inactive), the GI50 [8] was > 100 µM (inactive) and the GI50 [9] was > 100 µM (inactive). For the same molecule, the GI50 [10] was > 100 µM (inactive), the GI50 [11] was > 100 µM (inactive) and the GI50 [12] was > 100 µM (inactive). For the same molecule, the GI50 [13] was > 100 µM (inactive), the GI50 [14] was > 100 µM (inactive) and the GI50 [16] was > 100 µM (inactive). The GI50 [17] was > 100 µM (inactive), the GI50 [18] was > 100 µM (inactive) and the GI50 [53] was > 100 µM (inactive). For the same molecule, the GI50 [20] was > 100 µM (inactive), the GI50 [21] was > 100 µM (inactive) and the GI50 [22] was > 100 µM (inactive). The GI50 [23] was > 100 µM (inactive), the GI50 [24] was > 100 µM (inactive) and the GI50 [25] was > 100 µM (inactive). The GI50 [26] was > 100 µM (inactive), the GI50 [27] was > 100 µM (inactive) and the GI50 [28] was > 100 µM (inactive). The GI50 [29] was > 100 µM (inactive), the GI50 [30] was > 100 µM (inactive) and the GI50 [31] was > 100 µM (inactive). For the same molecule, the GI50 [32] was > 100 µM (inactive), the GI50 [34] was > 100 µM (inactive) and the GI50 [54] was > 100 µM (inactive). The GI50 [36] was > 100 µM (inactive), the GI50 [37] was > 100 µM (inactive) and the GI50 [38] was > 100 µM (inactive). For the same molecule, the GI50 [39] was > 100 µM (inactive), the GI50 [40] was > 100 µM (inactive) and the GI50 [41] was > 100 µM (inactive). The GI50 [55] was greater than 100 µM, the GI50 [42] was > 100 µM (inactive) and the GI50 [43] was > 100 µM (inactive). The GI50 [44] was > 100 µM (inactive), the GI50 [45] was > 10 µM (inactive) and the GI50 [46] was > 100 µM (inactive). The GI50 [47] was > 100 µM (inactive), the GI50 [48] was > 100 µM (inactive) and the GI50 [49] was > 100 µM (inactive). For the same molecule, the GI50 [50] was > 100 µM (inactive), the GI50 [51] was > 100 µM (inactive) and the GI50 [52] was > 100 µM (inactive).

`CC1=COC2=C(C)C(=O)C(=O)c3c(C)ccc1c32` [MANSONONE F] was tested, and the GI50 [1] was 2.17 µM (inactive), the GI50 [2] was 20.1 µM (inactive) and the GI50 [3] was 3.24 µM (inactive). The GI50 [4] was 4.52 µM (inactive), the GI50 [5] was 2.18 µM (inactive) and the GI50 [6] was 20.3 µM (inactive). The GI50 [56] was 14.2 µM (inactive), the GI50 [8] was 3.74 µM (inactive) and the GI50 [9] was 2.84 µM (inactive). The GI50 [10] was 3.66 µM (inactive), the GI50 [11] was 3.66 µM (inactive) and the GI50 [57] was 1.78 µM (inactive). For the same molecule, the GI50 [12] was 5.48 µM (inactive), the GI50 [13] was 0.859 µM (active) and the GI50 [58] was 6.21 µM (inactive). For the same molecule, the GI50 [59] was 15.6 µM (inactive), the GI50 [14] was 42.1 µM (inactive) and the GI50 [15] was 4.38 µM (inactive). The GI50 [16] was 2.56 µM (inactive), the GI50 [17] was 1.42 µM (inactive) and the GI50 [18] was 2.55 µM (inactive). For the same molecule, the GI50 [53] was 2.61 µM (inactive), the GI50 [20] was 4.1 µM (inactive) and the GI50 [21] was 4.44 µM (inactive). The GI50 [22] was 3.93 µM (inactive), the GI50 [60] was 2.1 µM (inactive) and the GI50 [23] was 14.4 µM (inactive). The GI50 [61] was 3.28 µM (inactive), the GI50 [24] was 7.23 µM (inactive) and the GI50 [62] was 17.7 µM (inactive). The GI50 [25] was 8.3 µM (inactive), the GI50 [28] was 5.56 µM (inactive) and the GI50 [29] was 2.7 µM (inactive). The GI50 [30] was 14.2 µM (inactive), the GI50 [31] was 2.92 µM (inactive) and the GI50 [32] was 3.45 µM (inactive). For the same molecule, the GI50 [63] was 2.49 µM (inactive), the GI50 [34] was 6.92 µM (inactive) and the GI50 [35] was 7.18 µM (inactive). The GI50 [54] was 4.07 µM (inactive), the GI50 [64] was 8.24 µM (inactive) and the GI50 [36] was 3.15 µM (inactive). For the same molecule, the GI50 [37] was 2.98 µM (inactive), the GI50 [65] was 2.69 µM (inactive) and the GI50 [38] was 2.1 µM (inactive). For the same molecule, the GI50 [39] was 3.21 µM (inactive), the GI50 [40] was 3.71 µM (inactive) and the GI50 [41] was 2.86 µM (inactive). The GI50 [55] was 2.43 µM, the GI50 [42] was 18.2 µM (inactive) and the GI50 [43] was 14.7 µM (inactive). For the same molecule, the GI50 [44] was 1.69 µM (inactive), the GI50 [45] was 15.8 µM (inactive) and the GI50 [46] was 2.77 µM (inactive). The GI50 [47] was 0.349 µM (active), the GI50 [66] was 1.9 µM (inactive) and the GI50 [48] was 6.27 µM (inactive). For the same molecule, the GI50 [49] was 9.06 µM (inactive) and the GI50 [50] was 2.61 µM (inactive).
